Molecules are shown by their SMILES. Where a name gives a salt, the structure may show the parent alone.

We go through 24 compounds from patent US11203592B2, “Inhibitors of indoleamine 2,3-dioxygenase and methods of their use” (BRISTOL-MYERS SQUIBB COMPANY, priority 2017, dated 2021).

The target in one assay is T1, indoleamine 2,3-dioxygenase (IDO) (Homo sapiens, UniProt P14902).
T1 construct: endogenous in cells; host or cells: HeLa (ATCC CCL-2), induced with IFNγ at 25 ng/mL
T1 sequence (P14902 whole entry): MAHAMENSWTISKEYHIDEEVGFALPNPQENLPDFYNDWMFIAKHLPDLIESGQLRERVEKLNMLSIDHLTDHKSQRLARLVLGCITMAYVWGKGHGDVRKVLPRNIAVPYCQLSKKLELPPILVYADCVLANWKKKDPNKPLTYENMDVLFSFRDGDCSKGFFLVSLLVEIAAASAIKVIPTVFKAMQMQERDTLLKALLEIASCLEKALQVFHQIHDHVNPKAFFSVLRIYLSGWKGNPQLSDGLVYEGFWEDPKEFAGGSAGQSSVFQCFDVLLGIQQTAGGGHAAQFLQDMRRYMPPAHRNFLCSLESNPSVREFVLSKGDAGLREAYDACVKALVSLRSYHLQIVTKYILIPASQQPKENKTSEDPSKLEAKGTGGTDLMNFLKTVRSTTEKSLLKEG
The assay is described as follows: HeLa cell-based indoleamine 2,3-dioxygenase (IDO) assay, kynurenine production. Conditions: HeLa cells, IFNγ 25 ng/mL, 48 hour incubation, kynurenine absorbance at 480 nm. On the procedure: Assessment of Inhibitor Activity in HeLa Cell-Based Indoleamine 2,3-dioxygenase (IDO) Assay:
HeLa (ATCC® CCL-2) cells were obtained from the ATCC® and cultured in Dulbecco's Modified Eagle Medium supplemented with 4.5 g/L glucose, […] (#10-013-CV, Corning), 2 mM L-alanyl-L-glutamine dipeptide (#35050-061, Gibco), 100U/mL penicillin, 100 μg/mL streptomycin (#SV30010, HyClone) and 10% fetal bovine serum (#SH30071.03 HyClone). Cells were maintained in a humidified incubator at 37° C. in 5% CO2.
IDO activity was assessed as a function of kynurenine production as follows: HeLa cells were seeded in a 96-well culture plate at a density of 5,000 cells/well and allowed to equilibrate overnight. After 24 hours, the media was aspirated and replaced with media containing IFNγ (#285-IF/CF, R&D Systems) at a final concentration of 25 ng/mL. A serial dilution of each test compound was added to the cells in a total volume of 200 μL of culture medium. After a further 48 hour incubation, 170 μL of supernatant was transferred from each well to a fresh 96-well plate. 12.1 μL of 6.1N trichloroacetic acid (#T0699, Sigma-Aldrich) was added to each well and mixed, followed by incubation at 65° C. for 20 minutes to hydrolyze N-formylkynurenine, the product of indoleamine 2,3-dioxygenase, to kynurenine. The reaction mixture was then centrifuged for 10 mins at 500×g to sediment the precipitate. 100 μL of the supernatant was transferred from each well to a fresh 96-well plate. 100 μl of 2% (w/v) p-dimethylaminobenzaldehyde (#15647-7, Sigma-Aldrich) in acetic acid (#A6283, Sigma-Aldrich) was added to each well mixed and incubated at room temperature for 20 inns. Kynurenine concentrations were determined by measuring absorbance at 480 nm and calibrating against an L-kynurenine (#K8625, Sigma-Aldrich) standard curve using a SPECTRAMAX® M2e microplate reader (Molecular Devices). The percentage activity at each inhibitor concentration was determined and IC50 values assessed using nonlinear regression.
`CC(C(=O)NC12CC3CC(CC(C3)C1)C2)[C@H]1CC[C@@]2(CC1)OCc1ccccc12` (mixture of isomers) [Example 28, rac-N—((1R,3S)-Adamantan-1-yl)-2-((1R,4r)-3′H-spiro[cyclohexane-1,1′-isobenzofuran]-4-yl)propanamide] gave an IC50 of 201 nM.

`CC(C(=O)NC12CC3CC(CC(C3)C1)C2)[C@H]1CC[C@]2(CC1)OCc1ccccc12` (mixture of isomers) [Example 6, rac-N-((1R,3S)-Adamantan-1-yl)-2-((1S,4s)-3′H-spiro[cyclohexane-1,1′-isobenzofuran]-4-yl)propanamide]: the IC50 came out at 1300 nM.

In turn, `CC(NC(=O)C12CC3CC(CC(C3)C1)C2)[C@H]1CC[C@]2(CC1)OCc1ccccc12` (mixture of isomers) [Example 12, rac-(1R,3S)—N-(1-((1S,4s)-3′H-spiro[cyclohexane-1,1′-isobenzofuran]-4-yl)ethyl)adamantane-1-carboxamide] came in with an IC50 of 1440 nM.

Take `CC(C(=O)Nc1ccc(Cl)cc1)[C@H]1CC[C@]2(CC1)OCc1ccccc12` (mixture of isomers) [Example 5, N-(4-Chlorophenyl)-2-((1s,4s)-3′H-spiro[cyclohexane-1,1′-isobenzofuran]-4-yl)propanamide]: the IC50 came to 92 nM.

On to `CC(NC(=O)c1ccc(Cl)cc1)[C@H]1CC[C@]2(CC1)OCc1ccccc12` (mixture of isomers) [Example 11, rac-N-(1-((1s,4s)-3′H-spiro[cyclohexane-1,1′-isobenzofuran]-4-yl)ethyl)-4-chlorobenzamide], for which 45 nM corresponded to half-maximal inhibition (IC50).

The target of a further assay is T2, human IDO1 (Homo sapiens, UniProt P14902).
T2 construct: expressed in transfected cells
T2 sequence (P14902 whole entry): as above
The assay is described as follows: human IDO1/HEK293 cell IDO inhibition assay. In kind it is cell-based. Conditions: HEK293 cells stably expressing human IDO1, 20 hours incubation, absorbance at 490 nm; read-out: IDO1 HEK Human IC50. Here is the method: HEK293 cells were transfected with a pCDNA-based mammalian expression vector harboring human IDO1 cDNA (NM 002164.2) by electroporation. They were cultured in medium (DMEM with 10% FBS) containing 1 mg/ml G418 for two weeks. Clones of HEK293 cells that stably expressed human IDO1 protein were selected and expanded for IDO inhibition assay.
The human IDO1/HEK293 cells were seeded at 10,000 cells per 50 μL per well with RPMI/phenol red free media contains 10% FBS in a 384-well black wall clear bottom tissue culture plate (Matrix Technologies LLC) 100 nL of certain concentration of compound was then added to each well using ECHO liquid handling systems. The cells were incubated for 20 hours in 37° C. incubator with 5% CO2.
The compound treatments were stopped by adding trichloroacetic acid (Sigma-Aldrich) to a final concentration at 0.2%. The cell plate was further incubated at 50° C. for 30 minute. The equal volume supernatant (20 μL) and 0.2% (w/v) Ehrlich reagent (4-dimethylaminobenzaldehyde, Sigma-Aldrich) in glacial acetic acid were mixed in a new clear bottom 384-well plate. This plate was then incubated at room temperature for 30 minute. The absorbance at 490 nm was measured on Envision plate reader.
Compound IC50 values were calculated using the counts of 500 nM of a reference standard treatment as one hundred percent inhibition, and counts of no compound but DMSO treatment as zero percent inhibition.
In the case of `Cc1cccc2c1[C@]1(CC[C@H](C(C)C(=O)Nc3ccc(Cl)cc3)CC1)OC2` (mixture of isomers) [Example 8, rac-N-(4-chlorophenyl)-2-((1s,4s)-7′-methyl-3′H-spiro[cyclohexane-1,1′-isobenzofuran]-4-yl)propanamide], the half-maximal inhibitory concentration (IC50) was 24 nM.

As to `CC(NC(=O)c1ccc(Cl)cc1)[C@H]1CC[C@@]2(CC1)COc1ccccc12` (mixture of isomers) [Example 17, rac-N-(1-((1′r,4′r)-2H-Spiro[benzofuran-3,1′-cyclohexan]-4′-yl)ethyl)-4-chlorobenzamide], the half-maximal inhibitory concentration (IC50) came out at 59 nM.

As to `C[C@H](c1nc2ncc(Cl)cc2[nH]1)[C@H]1CC[C@@]2(CC1)COc1ccccc12` [Example 26, 2-((S)-1-((3S,4′r)-2H-spiro[benzofuran-3,1′-cyclohexan]-4′-yl)ethyl)-6-chloro-1H-imidazo[4,5-b]pyridine], the IC50 was found to be 43 nM.

Consider `Cc1cccc2c1OC(CO)[C@]21CC[C@H](CC(=O)Nc2ccc(Cl)cc2)CC1` (mixture of isomers) [Example 29, rac-N-(4-Chlorophenyl)-2-((1′r,2R,4′R)-2-(hydroxymethyl)-7-methyl-2H-spiro[benzofuran-3,1′-cyclohexan]-4′-yl)acetamide], for which the IC50 is 68 nM.

In the case of `Cc1cccc2c1[C@]1(CC[C@@H](C(C)C(=O)Nc3ccc(Cl)cc3)CC1)OC2` (mixture of isomers) [Example 7, rac-N-(4-Chlorophenyl)-2-((1r,4r)-7′-methyl-3′H-spiro[cyclohexane-1,1′-isobenzofuran]-4-yl)propanamide], the concentration for half-maximal inhibition (IC50) amounted to 37 nM.

As for `C[C@@H](c1nc2ncc(Cl)cc2[nH]1)[C@H]1CC[C@@]2(CC1)COc1ccccc12` [Example 25, 2-((R)-1-((3R,4′r)-2H-spiro[benzofuran-3,1′-cyclohexan]-4′-yl)ethyl)-6-chloro-1H-imidazo[4,5-b]pyridine], the IC50 amounted to 794 nM.

Turning to `Cc1cccc2c1[C@]1(CC[C@H](C(C)C(=O)NC3(C)CCCCC3)CC1)OC2` (mixture of isomers) [Example 10, rac-2-((1s,4s)-7′-methyl-3′H-spiro[cyclohexane-1,1′-isobenzofuran]-4-yl)-N-(1-methylcyclohexyl)propanamide], the IC50 came out at 980 nM.

On to `CC(NC(=O)c1ccc(Cl)cc1)[C@H]1CC[C@]2(CC1)COc1ccccc12` (mixture of isomers) [Example 21, rac-N-(1-((1′s,4′s)-2H-Spiro[benzofuran-3,1′-cyclohexan]-4′-yl)ethyl)-4-chlorobenzamide], for which the IC50 turned out to be 59 nM.

As to `Cc1cccc2c1OC(CO)[C@]21CC[C@@H](CC(=O)Nc2ccc(Cl)cc2)CC1` (mixture of isomers) [Example 30, rac-N-(4-Chlorophenyl)-2-((1′s,2R,4′S)-2-(hydroxymethyl)-7-methyl-2H-spiro[benzofuran-3,1′-cyclohexan]-4′-yl)acetamide], the IC50 is 363 nM.

In the case of `CC(NC(=O)c1ccc(C#N)cc1)[C@H]1CC[C@]2(CC1)COc1ccccc12` (mixture of isomers) [Example 27, rac-N-(1-((1′s,4′s)-2H-Spiro[benzofuran-3,1′-cyclohexan]-4′-yl)ethyl)-4-cyanobenzamide], the IC50 turned out to be 93 nM.

In the case of `C[C@@H](c1nc2ccc(Cl)cc2[nH]1)[C@H]1CC[C@@]2(CC1)COc1ccccc12` [Example 22, 2-((R)-1-((3R,4′r)-2H-spiro[benzofuran-3,1′-cyclohexan]-4′-yl)ethyl)-6-chloro-1H-benzo[d]imidazole], the IC50 worked out at 142 nM.

`CC(C(=O)Nc1ccc(Cl)cc1)[C@H]1CC[C@]2(CC1)COc1ccccc12` (mixture of isomers) [Example 20, rac-N-(4-Chlorophenyl)-2-((1′s,4′s)-2H-spiro[benzofuran-3,1′-cyclohexan]-4′-yl)propanamide]: the IC50 was found to be 61 nM.

Take `CC(C(=O)Nc1ccc(Cl)cc1)[C@H]1CC[C@@]2(CC1)COc1ccccc12` (mixture of isomers) [Example 14, rac-N-(4-Chlorophenyl)-2-((1′r,4′r)-2H-spiro[benzofuran-3,1′-cyclohexan]-4′-yl)propanamide]: the IC50 stood at 5 nM.

`C[C@H](NC(=O)c1ccc(Cl)cc1)[C@H]1CC[C@@]2(CC1)COc1ccccc12` [Example 19, N—((S)-1-((1'S,4′r)-2H-Spiro[benzofuran-3,1′-cyclohexan]-4′-yl)ethyl)-4-chlorobenzamide]: the IC50 worked out at 914 nM.

Take `C[C@@H](C(=O)Nc1ccc(Cl)cc1)[C@H]1CC[C@@]2(CC1)COc1ccccc12` [Example 16, (R)—N-(4-Chlorophenyl)-2-((1′R,4′r)-2H-spiro[benzofuran-3,1′-cyclohexan]-4′-yl)propanamide]: the IC50 is 8 nM.

With `Cc1cccc2c1[C@]1(CC[C@H](C(C)C(=O)NC34CC5CC(CC(C5)C3)C4)CC1)OC2` (mixture of isomers) [Example 9, rac-N-((1R,3S)-adamantan-1-yl)-2-((1S,4s)-7′-methyl-3′H-spiro[cyclohexane-1,1′-isobenzofuran]-4-yl)propanamide], the IC50 worked out at 617 nM.

On to `C[C@@H](NC(=O)c1ccc(Cl)cc1)[C@H]1CC[C@@]2(CC1)COc1ccccc12` [Example 18, N—((R)-1-((1′R,4′r)-2H-Spiro[benzofuran-3,1′-cyclohexan]-4′-yl)ethyl)-4-chlorobenzamide], for which the IC50 is 9 nM.

For the compound `CC(c1nc2ncc(Cl)cc2[nH]1)[C@H]1CC[C@@]2(CC1)COc1ccccc12` (mixture of isomers) [Example 24, rac-2-(1-((1′r,4′r)-2H-Spiro[benzofuran-3,1′-cyclohexan]-4′-yl)ethyl)-6-chloro-1H-imidazo[4,5-b]pyridine TFA Salt], the IC50 was 117 nM.

For `C[C@H](c1nc2ccc(Cl)cc2[nH]1)[C@H]1CC[C@@]2(CC1)COc1ccccc12` [Example 23, 2-((S)-1-((3S,4′r)-2H-spiro[benzofuran-3,1′-cyclohexan]-4′-yl)ethyl)-6-chloro-1H-benzo[d]imidazole], the IC50 amounted to 254 nM.
